Like-named read-outs stand apart in the source and are kept apart here.
How the values were obtained:
HeLa cells [1] = details: 24 h treatment, 10 or 20 μM
Protocol: Lectin staining. […] After staining, the cells were washed twice, lysed with 0.2% Triton X-100 (Fisher Scientific, Cat #BP151-100) for 15 min at 4° C., centrifuged at 14,000×g for 15 min at 4° C., and the supernatants were read in a Greiner Bio-One 96-well glass-bottom plate using a Tecan Infinite M1000 with excitation at 495 nm and emission from 510-550 nm. Three independent trials were carried out and the peak value (520 nm) was used for quantification.

purified ppGalNAc-T2 = purified ppGalNAc-T2 (Homo sapiens, UniProt Q10471); details: purified enzyme, in vitro glycosylation
Protocol: (§1) A second stage reaction (UDP-GLO™) then converted the accumulated UDP product to ATP and then, via luciferase, to light.
(§2) Secondary screen. Glycosylation assays using recombinant ppGalNAc-T2 and ppGalNAc-T3 were carried out using the UDP-GLO™ Glycosyltransferase assay kit (Promega, Madison, Wis., Cat #V6962), according to the manufacturer's recommendation. The reaction (25 μl) included 2.5 ng/μl purified enzyme, 25 μM UDP-GalNAc (Sigma-Aldrich, Cat #U5252), 12.5 μM EA2 peptide (AnaSpec, Mucin 10, AA153-165, […], Cat #AS-63841), 25 mM Tris-HCl (pH7.5) (Fisher Scientific, Cat #77-86-1), 5 mM MnCl2 (Fisher Scientific, Cat #M87-500), 2.5 mM CaCl2) (Fisher Scientific, Cat #C70-500) and 50 μM compound. The negative control was vehicle only (same reaction mixture with a matched percentage of DMSO instead of compound), whereas background was from the reaction carried out without enzyme and DMSO instead of compound. All reactions were incubated at 37° C. in a water bath for 30 min and then cooled to room temperature. Aliquots (5 μl) were then added to 384-well plate (Thermo Scientific, Waltham, Mass., Cat #164610) to which 5 μl of UDP Detection Reagent was also added. Duplicate measures were made for all reactions. After 1 h at room temperature the luminescent signals were determined using a Tecan Infinite M1000 (Tecan Group Ltd., Männedorf, Switzerland) with integration time set to 1000 msec. The background-subtracted average for each compound was expressed as a percentage of the negative control (taken as 100%). Compounds with ≥50% effect were considered direct modulators.
(§3) Titration assays. For the sensor assay, about 200,000 cells expressing either sensor were seeded into Greiner Bio-One 24-well plates (Sigma-Aldrich, Cat #662160). After 24 h, the cells were incubated for another 6 h in the presence of 0-50 μM compound. To release the cells the medium was replaced with 200 μl 5 mM EDTA/PBS containing 110 nM MG dye. After 5 min at 37° C., fluorescence measurements (20,000 cells/well) were carried out as described above. For the biochemical assay, the assay conditions were identical except for variations in the compound or substrate concentrations as indicated in the figure legends. Data analysis was completed using Prism (Graph Pad Prism Inc., SCR_002798).

purified ppGalNAc-T3 = purified ppGalNAc-T3 (Homo sapiens, UniProt Q14435); details: for Vmax: percent of control without inhibitor
Protocol: as §1, §2, §3

purified ppGalNAc-T6 = purified ppGalNAc-T6 (Homo sapiens, UniProt Q8NCL4); details: purified enzyme, in vitro glycosylation
Protocol: as §2, with “Aliquots (5 μl) were then added to 384-well plate (Thermo Scientific, Waltham, Mass., Cat #164610) to which 5 μl of UDP Detection Reagent was also added. Duplicate measures were made for all reactions.” left out, “Compounds with ≥50% effect were considered direct modulators.” left out
(§4) Titration assays. […] After 5 min at 37° C., fluorescence measurements (20,000 cells/well) were carried out as described above. […]

MDA-MB231 cells [2] = details: MDA-MB231, 5 μM T3Inh-1, 24 or 48 h
Protocol: Proliferation assay. […] After 24, 48 or 72 h, the cells were released using trypsin and counted twice using a hemocytometer for 3 independent trials.

HeLa cells [3] = details: 6 h, 10 μM
FGF23 [4] = details: mice; for ratio of cleaved/intact FGF23 in the blood: 1 or 2 injections, blood 24 h after last
Protocol: (§5) Animal analysis. Wild-type C57BL/6 six to eight week old mice were purchased from Charles River Laboratories International Inc. (Wilmington, Mass.). Protocols, handling, and care of the mice conformed to protocols approved by the Institutional Animal Care and Use Committee of Carnegie Mellon University (CMU IACUC protocol AS16-005). The compound was dissolved in DMSO at 25 and 50 mg/ml then further diluted with PEG400 (Hampton Research, CA, USA, HR2-603) to create 5 and 10 mg/ml stocks for injection. Control (vehicle only: 20% DMSO, 80% PEG400) and experimental (25 or 50 mg/kg compound) animals received either single or double (separated by 24 h) intraperitoneal injections and, 24 h after the last injection, a cardiac blood draw was carried out. The cleaved/intact FGF23 ratio was determined using ELISA kits from Immunotopics (Carlsbad, Va., USA, Cat #60-6800, Cat #60-6300) with cleaved equaling total minus intact.

[5] = mice, 25 and 50 mg/kg intraperitoneal, 1 or 2 injections
Protocol: as §5

ppGalNAc-T2 = ppGalNAc-T2 (Homo sapiens, UniProt Q10471); details: HEK cells expressing T2 sensor, 6 h, 0-50 μM
Protocol: (§6) Primary screen. HEK cells stably expressing the T2 sensor (containing ANGPTL3 linker sequence with T225G modification) or the T3 sensor (containing FGF23-based linker) were cultured in MEM (Corning, N.Y., Cat #10-010-CV) with 10% fetal bovine serum (FBS, Atlanta Biologicals, Flowery Branch, Ga., Cat #5111150) and 100 IU/ml penicillin-streptomycin (Sigma-Aldrich, Cat #P4333) at 37° C., 5% CO2. Positive controls were cell lines expressing matched sensors with the glycosylation site mutated (Δglycan), specifically T225G/T226G and T178G for the T2 and T3 sensors, respectively. Cells (50,000/well) were seeded in flat bottom 96-well-plates (Corning, N.Y., Cat #3997) and grown for 24 h. Compounds (the diversity set from ChemBridge Corporation (Chicago, Ill.) and the approved oncology drugs set V and the diversity set II from the National Cancer Institute Developmental Therapeutics Program) were then added to achieve a 10 μM final concentration. […] The plates were then transferred to an Accuri™ C6 flow cytometer (BD Biosciences) where GFP and MG fluorescence was measured using 488 nm and 640 nm for 10,000 cells per well. […]
as §4

ppGalNAc-T3 = ppGalNAc-T3 (Homo sapiens, UniProt Q14435); details: read-out: apparent IC50 of T3 sensor activation; HEK cells expressing T3 sensor, 6 h, 0-50 μM
Protocol: as §6, §4

MCF7 cells = details: MCF7, 5 μM T3Inh-1, 24 h, Matrigel-coated filters
Protocol: (§7) Cell invasion assay. Breast cancer MDA-MB231 cells were grown in DMEM medium (Corning, N.Y., Cat #10-013-CV) with 10% FBS and 100 IU/ml penicillin-streptomycin at 37° C. and 5% CO2 and then plated at a density of 1.32×104 in 0.3 ml of DMEM medium without FBS into the upper chamber of a BIOBOAT™ insert fitted with a 8.0 μm PET membrane (Corning, N.Y., Cat #354578). For migration assays, the filter was uncoated. […] Medium containing 10% FBS (0.6 ml) was placed into the lower chamber as a chemo attractant. The compound (final concentration of 5 μM) or a matching amount of DMSO was added to both chambers. After 24 h or 48 h the cells were fixed with −20° C. methanol for 15 min and then stained with Trypan blue for 5 min. Cells on the upper surface were removed using cotton swabs. Cells present on the underside of the membrane were photographed using an EVOS FL Cell Imaging System (Invitrogen, CA) and the images were thresholded for presentation and counting using Image J (National Institutes of Health, Bethesda, Md., SCR_003070). The assays involving MCF7 cells were identical except that they were performed 24 h post transfection.

MDA-MB231 cells [6] = details: 24 or 48 h
Protocol: as §7

[7] = biological target: purified lumenal domain of ppGalNAc-T3 (Homo sapiens, UniProt Q14435)
From the text: Tryptophan fluorescence quenching assay. […] The value at the peak of emission at 324 nm was used for the binding curve analysis by Prism.

FGF23 [8] = system: FGF23
Protocol: (§8) Immunoblotting. The FLAG-tagged FGF23, Myc-tagged ANGPTL3 with the T225G modification, and untagged ppGalNAc-T3 (cloned into PCDNA 3.0 using BamH1 sites) were transfected into HEK cells using the JetPEI transfection reagent (VWR International, Radnor, Pa., Cat #101-40N) according to the manufacturer's instructions. After 24 h, the medium was replaced with serum-free MEM containing the compound for 6 h. The medium and cells were then collected and, after trichloroacetic acid precipitation of the medium, analyzed by immunoblot using anti-FLAG antibody at 1:1000 or anti-Myc antibody at 1:2000 and then the peroxidase-coupled secondary antibodies. Emission was captured and quantified using a CHEMIDOC™ Touch Imaging System with Image Lab Software (BioRad, SCR_014210). For ppGalNAc-T3 determinations in different cell lines, cells were collected and lysed with 100 μl buffer (10 mM Tris-HCl (pH8.0), 1 mM EDTA (ACROS ORGANICS, Cat #446085000), 1% Triton X-100, 0.1% sodium deoxycholate (Fisher Scientific, Cat #BP349-100), 0.1% SDS (Fisher Scientific, Cat #BP166-500), 140 mM NaCl (Fisher Scientific, Cat #5271-3), 1 mM PMSF (Sigma-Aldrich, Cat #PMSF-RO). Then 15 μl of each lysate was analyzed by immunoblotting using the purchased anti-ppGalNAc-T3 and anti-α-tubulin antibodies.

ANGPTL3 = details: media of HEK cells transfected with Myc-ANGPTL3, 6 h
Protocol: as §8

O=C(Nc1ccc(Nc2ccncc2)cc1)c1ccc(Nc2ccnc3ccccc23)cc1 [Compound T3Inh-1]
staining intensity by lectin Concanavalin A (ConA) (HeLa cells [1]): did not affect | staining intensity by lectin Sambucus Nigra (SNA) (HeLa cells [1]): did not affect | staining intensity by lectin Vicia Villosa (VVA) (HeLa cells [1]): did not affect | staining intensity by lectin Wheat germ agglutinin (WGA) (HeLa cells [1]): did not affect | HEK cell proliferation (HEK cells; 0-50 μM, 24, 48, 72 h, cell counting): did not affect | toxicity (HEK cells; HEK cells, continuous exposure 24, 48, 72 h): no toxicity | inhibition of ppGalNAc-T2 (purified ppGalNAc-T2): undetectable | inhibition of ppGalNAc-T3 in the secondary screen (purified ppGalNAc-T3; 50 μM compound, versus ppGalNAc-T2): strong and selective inhibitor | IC50 (purified ppGalNAc-T3; read-out: IC50 of inhibition of ppGalNAc-T3, purified enzyme, in vitro glycosylation): 7 µM | Ki (purified ppGalNAc-T3; substrate varied: Peptide (EA2)): 9.9 µM | Vmax (purified ppGalNAc-T3; substrate varied: Peptide (EA2), 7.5 μM T3Inh-1): 82% | Vmax (purified ppGalNAc-T3; substrate varied: Peptide (EA2), 15 μM T3Inh-1): 36% | Ki (purified ppGalNAc-T3; substrate varied: UDP-GalNAc): 2.9 µM | Vmax (purified ppGalNAc-T3; substrate varied: UDP-GalNAc, 7.5 μM T3Inh-1): 71% | Vmax (purified ppGalNAc-T3; substrate varied: UDP-GalNAc, 15 μM T3Inh-1): 56% | activity against ppGalNAc-T6 (purified ppGalNAc-T6): lacked activity | effect on cell proliferation (MDA-MB231 cells [2]): no discernable effect | localization or expression level of ppGalNAc-T3, ppGalNAc-T2 or any other Golgi marker tested (HeLa cells [3]): no change | ratio of cleaved/intact FGF23 in the blood (FGF23 [4]; 25 mg/kg intraperitoneal): robust and statistically significant increase | ratio of cleaved/intact FGF23 in the blood (FGF23 [4]; 50 mg/kg intraperitoneal): robust and statistically significant increase | increase of level of proteolyzed C-terminal FGF23 fragment (FGF23 [4]; intraperitoneal injection): 8 fold | effects on animal health [5]: no apparent ill effects | activity towards the T2 sensor (ppGalNAc-T2): little or no activity | IC50 (ppGalNAc-T3): 12 µM | increase of invasion caused by ppGalNAc-T3 transfection (MCF7 cells): strongly blocked | inhibition of invasion (MDA-MB231 cells [6]; 5 μM T3Inh-1, Matrigel-coated filters): 98% | inhibition of migration (MDA-MB231 cells [6]; 5 μM T3Inh-1, uncoated filters): > 80% | Kd ([7]; read-out: apparent Kd of direct binding, quenching at 324 nm): 17 µM | affinity of binding to GalNAc-T3 ([7]; stated in words): low micromolar | intact and cleaved FGF23 in cell lysates (FGF23 [8]; cell extracts, 6 h, also with 100 μM chloroquine): no change | half-max of increase in ratio of cleaved/intact FGF23 (FGF23 [8]; media of HEK cells co-expressing FGF23 and ppGalNAc-T3, 6 h): 14 µM | secreted intact FGF23 (FGF23 [8]; media, 6 h, increasing concentrations): dose-dependent loss | secreted intact ANGPTL3 (ANGPTL3): remained high at all concentrations

Reference: patent US11730730B2, “Cell-based screening and compounds that modulate GalNAc-transferases” (Carnegie Mellon University, priority 2018, dated 2023)
